US20210115104A1, “AMYLIN ANALOGUES” (Zealand Pharma A/S, priority 2015, published 2021)
*1 amine or outer side, *2 acyl side, *3 side chain or, on linkers, in order; H or OH if unused. Where a SMILES comes first, the peptide text is derived from it. Bridges are numbered along the chain shown (N, C = ends). [ ]: non-standard residue; d: D form. The star is where a group is joined. C20 diacid = O=C(O)CCCCCCCCCCCCCCCCCCC(=O)*; γGlu = O=C(O)[C@H](CCC(=O)[*:2])N[*:1]; Hyp = O=C(O)[C@@H]1C[C@@H](O)CN1; NMeI = CC[C@H](C)[C@H](NC)C(=O)O; Sar = CNCC(=O)O

Tests used:
[1] = molecular target: T1, human calcitonin receptor (hCTR2) (Homo sapiens, UniProt P30988); test: hCTR2 cAMP assay (AlphaScreen) in COS7 cells; assay type: cell-based; details: cAMP induction, COS7 cells expressing hCTR2; Table 1; read-out: hCTR2 EC50
T1 construct: expressed in transfected cells
T1 sequence (P30988 25-474): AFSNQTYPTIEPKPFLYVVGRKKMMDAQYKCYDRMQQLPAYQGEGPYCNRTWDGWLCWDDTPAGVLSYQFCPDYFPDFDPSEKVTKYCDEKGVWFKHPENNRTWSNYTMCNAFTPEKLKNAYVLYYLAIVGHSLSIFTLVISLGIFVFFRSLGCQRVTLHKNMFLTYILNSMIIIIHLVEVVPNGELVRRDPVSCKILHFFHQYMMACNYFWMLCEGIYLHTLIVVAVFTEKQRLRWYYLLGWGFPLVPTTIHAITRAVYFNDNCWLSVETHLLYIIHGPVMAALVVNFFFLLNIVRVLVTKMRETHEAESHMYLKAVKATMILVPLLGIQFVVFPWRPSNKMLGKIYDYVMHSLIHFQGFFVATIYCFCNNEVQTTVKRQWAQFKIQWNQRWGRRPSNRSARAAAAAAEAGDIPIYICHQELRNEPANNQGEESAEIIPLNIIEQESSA
Procedure, shortened: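 cAMP induction, read by AlphaScreen after lysis, gives EC50 values via 4PL curve fitting. Peptides were applied at rising concentrations for 15 min at 37 °C, with IBMX and 0.1% casein in HEPES-buffered Tyrode pH 7.4, to COS7 cells (no endogenous RAMPs) stably expressing human CTR2.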

[2] = molecular target: T2, human amylin receptor 3 (hAMYR3), hCTR2 co-expressed with hRAMP3 (Homo sapiens, UniProt O60896+P30988); test: hAMYR3 cAMP assay (AlphaScreen) in COS7 cells; assay type: cell-based; details: cAMP induction, COS7 cells expressing hAMYR3; Table 1; read-out: hAMYR3 EC50
T2 construct: expressed in transfected cells
T2 sequence (P30988 25-474): T1 sequence (P30988 25-474)
T2 sequence (O60896 24-148 partner): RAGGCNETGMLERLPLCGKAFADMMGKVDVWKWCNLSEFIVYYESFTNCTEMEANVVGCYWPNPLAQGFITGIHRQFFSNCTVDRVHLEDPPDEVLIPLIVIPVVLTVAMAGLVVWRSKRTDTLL
Procedure, shortened: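 EC50 values derive from 4PL curve fits of cAMP (AlphaScreen) in lysates of RAMP-naive COS7 cells stably carrying hCTR2 plus hRAMP3. Peptide dilution series were applied for 15 min at 37 °C in pH 7.4 Tyrode buffer containing 100 µM IBMX and 0.1% casein.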

[3] = Assessment of physical stability (Thioflavin T fibrillation); assay type: physicochemical; set-up: key: FND = fibrillation not detected; FD = fibrillation detected; details: 1 mg/ml, 40° C., ThT; for Fibrillation pH 4.0 (Ac): 50 mM acetate buffer pH 4.0, 96 hours; for Fibrillation pH 7.0 (His): 50 mM histidine buffer pH 7.0, 96 hours; for Fibrillation pH 7.0 (Phos.): 50 mM phosphate buffer pH 7.0, 96 hours
Procedure, shortened: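 Fibrillation lag-time, in hours, taken where regressions of the initial stable phase and the growth phase intersect. ThT (40 μM) fluorescence monitored at 40 °C for 96 h, 10-min reads each preceded by 300 s mixing. Peptide at 1 mg/ml in 50 mM buffers: phosphate or histidine pH 7.0, acetate pH 4.0.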

[4] = Assessment of chemical stability (RP-HPLC normalized purity); assay type: physicochemical; details: 7 days, 40° C., Table 1; for Normalized purity after 7 days, 40° C., pH 4: pH 4, 0.2 mg/ml; for Normalized purity after 7 days, 40° C., pH 6: pH 6, 0.2 mg/ml; for Normalized purity after 7 days, 40° C., pH 7.5: pH 7.5, 0.2 mg/ml; for Normalized purity after 7 days, 40° C., pH 9: pH 9, 0.2 mg/ml
Procedure, shortened: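 Purity after 7 days at 40° C is expressed relative to T=0 (set to 100) for each pH. Samples at 0.2 mg/ml, pH 4, 6, 7.5 or 9, analyzed by RP-HPLC with UV 220 nm on C8 (ammonium formate) or C18 (TFA) gradients.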

Compound | EC50 [1] [nM] | EC50 [2] [nM] | Fibrillation pH 4.0 (Ac) [3] | Fibrillation pH 7.0 (His) [3] | Fibrillation pH 7.0 (Phos.) [3] | Normalized purity after 7 days, 40° C., pH 4 [4] | Normalized purity after 7 days, 40° C., pH 6 [4] | Normalized purity after 7 days, 40° C., pH 7.5 [4] | Normalized purity after 7 days, 40° C., pH 9 [4]
CC[C@H](C)[C@@H](C(=O)N[C@@H](CC(C)C)C(=O)N[C@@H](CO)C(=O)N[C@@H](CO)C(=O)N[C@H](C(=O)N[C@@H](CCC(=O)O)C(=O)N[C@H](C(=O)NCC(=O)N[C@@H](CO)C(=O)N[C@@H](CC(N)=O)C(=O)N[C@H](C(=O)N1C[C@H](O)C[C@H]1C(N)=O)[C@@H](C)O)C(C)C)[C@@H](C)O)N(C)C(=O)[C@H](C)NC(=O)CN(C)C(=O)[C@H](Cc1ccccc1)NC(=O)[C@H](CO)NC(=O)[C@H](CO)NC(=O)[C@H](CCCNC(=N)N)NC(=O)[C@H](CCCCN)NC(=O)[C@H](CC(C)C)NC(=O)[C@H](Cc1ccccc1)NC(=O)[C@H](Cc1c[nH]cn1)NC(=O)[C@H](C)NC(=O)[C@H](CC(C)C)NC(=O)[C@H](CCCNC(=N)N)NC(=O)[C@H](CCC(=O)O)NC(=O)[C@@H](NC(=O)[C@H](C)NC(=O)[C@@H]1CSSC[C@H](NC(=O)[C@H](CCCNC(=N)N)NC(=O)CC[C@H](NC(=O)CCCCCCCCCCCCCCCCCCC(=O)O)C(=O)O)C(=O)NCC(=O)N[C@@H]([C@@H](C)O)C(=O)N[C@@H](C)C(=O)N[C@@H]([C@@H](C)O)C(=O)N1)[C@@H](C)O [Compound 19, [19CD]-isoGlu-R-C( )-GTAT-C( )-ATERLAHFLKRSSF-Gly(Me)-A-Ile(Me)-LSSTEVGSNT-Hyp-NH2] ({C20 diacid-γGlu}-RCGTATCATERLAHFLKRSSF[Sar]A[NMeI]LSSTEVGSNT[Hyp]-NH2; disulfide 2-7) | 0.16 | 0.28 | FND | FND | FND | A (A = >90%) | A (A = >90%) | A (A = >90%) | C (C = <70%)
CC[C@H](C)[C@@H](C(=O)N[C@@H](CC(C)C)C(=O)N[C@@H](CO)C(=O)N[C@@H](CO)C(=O)N[C@H](C(=O)N[C@@H](CCC(=O)O)C(=O)N[C@H](C(=O)NCC(=O)N[C@@H](CO)C(=O)N[C@@H](CO)C(=O)N[C@H](C(=O)N1C[C@H](O)C[C@H]1C(N)=O)[C@@H](C)O)C(C)C)[C@@H](C)O)N(C)C(=O)[C@H](C)NC(=O)CN(C)C(=O)[C@H](Cc1ccccc1)NC(=O)[C@H](CO)NC(=O)[C@H](CO)NC(=O)[C@H](CCCNC(=N)N)NC(=O)[C@H](Cc1c[nH]cn1)NC(=O)[C@H](CC(C)C)NC(=O)[C@H](Cc1ccccc1)NC(=O)[C@H](Cc1c[nH]cn1)NC(=O)[C@H](C)NC(=O)[C@H](CC(C)C)NC(=O)[C@H](CCCNC(=N)N)NC(=O)[C@H](CCC(=O)O)NC(=O)[C@@H](NC(=O)[C@H](C)NC(=O)[C@@H]1CSSC[C@H](NC(=O)[C@H](CCCNC(=N)N)NC(=O)CC[C@H](NC(=O)CCCCCCCCCCCCCCCCCCC(=O)O)C(=O)O)C(=O)NCC(=O)N[C@@H]([C@@H](C)O)C(=O)N[C@@H](C)C(=O)N[C@@H]([C@@H](C)O)C(=O)N1)[C@@H](C)O [Compound 30, [19CD]-isoGlu-R-C( )-GTAT-C( )-ATERLAHFLHRSSF-Gly(Me)-A-Ile(Me)-LSSTEVGSST-Hyp-NH2] ({C20 diacid-γGlu}-RCGTATCATERLAHFLHRSSF[Sar]A[NMeI]LSSTEVGSST[Hyp]-NH2; disulfide 2-7) | 0.07 | 0.12 | FND | FD | FD |  |  |  | 
CC[C@H](C)[C@@H](C(=O)N[C@@H](CC(C)C)C(=O)N[C@@H](CO)C(=O)N[C@@H](CO)C(=O)N[C@H](C(=O)N[C@@H](CCC(=O)O)C(=O)N[C@H](C(=O)NCC(=O)N[C@@H](CO)C(=O)N[C@@H](Cc1ccccc1)C(=O)N[C@H](C(=O)N1C[C@H](O)C[C@H]1C(N)=O)[C@@H](C)O)C(C)C)[C@@H](C)O)N(C)C(=O)[C@H](C)NC(=O)CN(C)C(=O)[C@H](Cc1ccccc1)NC(=O)[C@H](CO)NC(=O)[C@H](CO)NC(=O)[C@H](CCCNC(=N)N)NC(=O)[C@H](CCC(N)=O)NC(=O)[C@H](CC(C)C)NC(=O)[C@H](Cc1ccccc1)NC(=O)[C@H](Cc1c[nH]cn1)NC(=O)[C@H](C)NC(=O)[C@H](CC(C)C)NC(=O)[C@H](CCCNC(=N)N)NC(=O)[C@H](CCC(=O)O)NC(=O)[C@@H](NC(=O)[C@H](C)NC(=O)[C@@H]1CSSC[C@H](NC(=O)[C@H](CCCNC(=N)N)NC(=O)CC[C@H](NC(=O)CCCCCCCCCCCCCCCCCCC(=O)O)C(=O)O)C(=O)NCC(=O)N[C@@H]([C@@H](C)O)C(=O)N[C@@H](C)C(=O)N[C@@H]([C@@H](C)O)C(=O)N1)[C@@H](C)O [Compound 32, [19CD]-isoGlu-R-C( )-GTAT-C( )-ATERLAHFLQRSSF-Gly(Me)-A-Ile(Me)-LSSTEVGSFT-Hyp-NH2] ({C20 diacid-γGlu}-RCGTATCATERLAHFLQRSSF[Sar]A[NMeI]LSSTEVGSFT[Hyp]-NH2; disulfide 2-7) | 0.17 | 0.23 | FND | FD | FD |  |  |  | 
CC[C@H](C)[C@@H](C(=O)N[C@@H](CC(C)C)C(=O)N[C@@H](CO)C(=O)N[C@@H](CO)C(=O)N[C@H](C(=O)N[C@@H](CCC(=O)O)C(=O)N[C@H](C(=O)NCC(=O)N[C@@H](CO)C(=O)N[C@@H](CO)C(=O)N[C@H](C(=O)N1CCC[C@H]1C(N)=O)[C@@H](C)O)C(C)C)[C@@H](C)O)N(C)C(=O)[C@H](C)NC(=O)CN(C)C(=O)[C@H](Cc1ccccc1)NC(=O)[C@H](CO)NC(=O)[C@H](CO)NC(=O)[C@H](CCCNC(=N)N)NC(=O)[C@H](CC(N)=O)NC(=O)[C@H](CC(C)C)NC(=O)[C@H](Cc1ccccc1)NC(=O)[C@H](Cc1c[nH]cn1)NC(=O)[C@H](C)NC(=O)[C@H](CC(C)C)NC(=O)[C@H](CCCNC(=N)N)NC(=O)[C@H](CCC(=O)O)NC(=O)[C@@H](NC(=O)[C@H](C)NC(=O)[C@@H]1CSSC[C@H](NC(=O)[C@H](CCCNC(=N)N)NC(=O)CC[C@H](NC(=O)CCCCCCCCCCCCCCCCCCC(=O)O)C(=O)O)C(=O)NCC(=O)N[C@@H]([C@@H](C)O)C(=O)N[C@@H](C)C(=O)N[C@@H]([C@@H](C)O)C(=O)N1)[C@@H](C)O [Compound 35, [19CD]-isoGlu-R-C( )-GTAT-C( )-ATERLAHFLNRSSF-Gly(Me)-A-Ile(Me)-LSSTEVGSSTP-NH2] ({C20 diacid-γGlu}-RCGTATCATERLAHFLNRSSF[Sar]A[NMeI]LSSTEVGSSTP-NH2; disulfide 2-7) | 0.05 | 0.11 | FND | FND | FND | A (A = >90%) | A (A = >90%) | B (B = 70-90%) | B (B = 70-90%)
